# System: SMN
# Assay: Western blotting of abnormal protein from pre-mRNA, SMN
# Assay type: cell-based, human
# Conditions: HeLa cells, 10 nM and 100 nM, 24 hours; untreated: only a 35 kDa band (FIG. 4)
# From the text: Consequently the protein may serves as a protein marker to monitor the action of (8E,12E,14E)-7-((4-cycloheptylpiperazin-1-yl)carbonyl)oxy-3,6,16,21-tetrahydroxy-6,10,12,16,20-pentamethyl-18,19-epoxytricosa-8,12,14-trien-11-olide. Whether the pre-mRNA-dependent abnormal protein practically emerged upon the treatment of (8E,12E,14E)-7-((4-cycloheptylpiperazin-1-yl)carbonyl)oxy-3,6,16,21-tetrahydroxy-6,10,12,16,20-pentamethyl-18,19-epoxytricosa-8,12,14-trien-11-olide was examined by using cancer cells (HaLa). […] Based on these findings, the protein generated from pre-mRNA can serve as the marker as well.
# About 3×10^5 cells of HeLa cells were first seeded in a 24-well culture plate (bottom area: 2 cm^2), and 18 hours later, the compound was added thereto at the indicated concentration, followed by additional 24-hour culturing. The cells were washed once with PBS(−), and then were lysed by treating with 0.2 ml of M-PER reagent (PIERCE) for 30 minutes. The collected lysate was filtered with a 0.45 μm filter to remove insoluble matters and then combined with an equal amount of 2×SDS-PAGE sample solution. The mixture was heated to be denatured at 95° C. for five minutes to yield a sample to be analyzed.
# The analysis sample (15 μl each) was separated with 5-20% SDS-PAGE and transferred onto a PVDF membrane (Hybond-P: GE-Amersham). […]
smiles,measurement,value
"CCC(O)C(C)C1OC1CC(C)(O)/C=C/C=C(\C)C1OC(=O)CC(O)CCC(C)(O)C(OC(=O)N2CCN(C3CCCCCC3)CC2)/C=C/C1C (stereo not shown) [E7107, (8E,12E,14E)-7-((4-cycloheptylpiperazin-1-yl)carbonyl)oxy-3,6,16,21-tetrahydroxy-6,10,12,16,20-pentamethyl-18,19-epoxytricosa-8,12,14-trien-11-olide]",SMN bands in Western blot,multiple bands with a molecular weight of less than 35 kDa were confirmed
